{"source": "paper PMC5881531", "about": "(FEBS Open Bio, 2018)", "biological_target": "T1, Dihydroorotate dehydrogenase of Trypanosoma brucei (TbDHODH), FMN-free form (Trypanosoma brucei, UniProt Q57U83, A115V)", "T1 construct": "gene Tb927.5.3830", "T1 sequence (Q57U83 whole entry A115V)": "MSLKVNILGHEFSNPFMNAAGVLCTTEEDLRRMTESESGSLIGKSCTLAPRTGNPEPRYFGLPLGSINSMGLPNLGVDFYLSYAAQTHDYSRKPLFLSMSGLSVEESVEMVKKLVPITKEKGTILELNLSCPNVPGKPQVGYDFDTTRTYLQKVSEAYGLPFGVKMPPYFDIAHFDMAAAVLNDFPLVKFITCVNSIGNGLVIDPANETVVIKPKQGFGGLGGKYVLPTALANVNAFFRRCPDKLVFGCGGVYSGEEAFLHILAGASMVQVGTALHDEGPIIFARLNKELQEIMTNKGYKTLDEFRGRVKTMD", "test": "biochemical", "note": "pKd: −log10 of the molar value.", "data": [{"smiles": "Cc1cc2nc3c(=O)[nH]c(=O)nc-3n(C[C@H](O)[C@H](O)[C@H](O)COP(=O)(O)O)c2cc1C", "note": "[FMN]", "values": [{"measurement": "pKd", "result": 7.92}]}]}
